Experimental findings from ChEMBL document CHEMBL3632572, “Adenosine/guanosine preferring nucleoside ribohydrolase is a distinct, druggable antitrichomonal target” (Bioorg Med Chem Lett, 2015) are described below.

Active and inactive are the calls of the source. No cut-off for these calls is given here.

Assay [1] is described as follows: Inhibition of Trichomonas vaginalis adenosine-guanosine preferring ribohydrolase after 40 mins.
The next assay deals with Trichomonas vaginalis. The experiment in a line: Inhibition of Trichomonas vaginalis uridine ribohydrolase after 40 mins.
Assay [2] can be described thus: Inhibition of Trichomonas vaginalis adenosine-guanosine preferring ribohydrolase after 40 mins in presence of 0.01% triton X-100.

On to `O=c1c(O[C@@H]2O[C@H](CO)[C@@H](O)[C@H](O)[C@H]2O)c(-c2ccc(O)c(O)c2)oc2cc(O)cc(O)c12` [ISOQUERCETIN], for which the IC50 worked out at 0.3 µM in assay [1] and 0.9 µM in assay [2]. Besides, the inhibition result in the assay with Trichomonas vaginalis is “inactive”.

`COc1ccccc1OCCNCC(O)COc1cccc2[nH]c3ccccc3c12` (stereo not drawn) [CARVEDILOL] yielded an IC50 in assay [1] of 10.4 µM. Further, the inhibition result in the assay on Trichomonas vaginalis was “inactive”.

As to `O=C1c2c(O)cc(O)cc2OC(c2ccc(O)c(O)c2)C1O` (racemic) [TAXIFOLIN], the IC50 in assay [1] is 5.9 µM; in assay [2], 12.5 µM. Further, the inhibition result in the assay with Trichomonas vaginalis is “inactive”.

Take `OC[C@H]1O[C@@H](n2cnc3c(NC4CCCC4)nc(Cl)nc32)[C@H](O)[C@@H]1O`: the IC50 came out at 9.8 µM in assay [1] and 11.7 µM in assay [2]. Besides, in the assay with Trichomonas vaginalis, the inhibition result is “inactive”.

For `C[C@@H]1O[C@@H](OC[C@H]2O[C@@H](Oc3c(-c4ccc(O)c(O)c4)oc4cc(O)cc(O)c4c3=O)[C@H](O)[C@@H](O)[C@@H]2O)[C@H](O)[C@H](O)[C@H]1O` [RUTIN], the 50% inhibitory concentration (IC50) in assay [1] stood at 10.2 µM; in assay [2], 17.3 µM. Also, the inhibition entry in the assay on Trichomonas vaginalis was “inactive”.

Turning to `Cc1ccc(NC(=O)c2ccc(CN3CCN(C)CC3)cc2)cc1Nc1nccc(-c2cccnc2)n1` [IMATINIB], the IC50 was 1.8 µM in assay [1] and 3.5 µM in assay [2]. Also, the inhibition result with Trichomonas vaginalis was “inactive”.

Regarding `O=c1c(O[C@@H]2O[C@H](CO)[C@H](O)[C@H](O)[C@H]2O)c(-c2ccc(O)c(O)c2)oc2cc(O)cc(O)c12` [HYPEROSIDE], the IC50 in assay [1] is 2.2 µM; in assay [2], 4 µM. Besides, the inhibition result in the assay on Trichomonas vaginalis is “inactive”.

`O=C1c2c(O)cc(O)cc2O[C@H](c2ccc(O)c(O)c2)[C@H]1O` [(+)-TAXIFOLIN]: the IC50 turned out to be 9.3 µM in assay [1] and 34.2 µM in assay [2]. Also, the inhibition result in the assay on Trichomonas vaginalis is “inactive”.
